Reference: patent US20230416205A1, “COMPOUNDS, COMPOSITIONS, AND METHODS” (Denali Therapeutics Inc, priority 2020, published 2023)
Read-outs that look alike come from different tables or passages of the source.

Test system: NLRP3
Assay: IL-1β secretion assay in PMA-differentiated, LPS/nigericin-stimulated THP-1 cells (384-well, ELISA read-out)
Assay type: cell-based, human
Details: Homo sapiens
Outline: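 THP-1 cells differentiated with PMA (5 ng/mL, 40 h), primed in serum-free medium with 25 ng/mL LPS for 2 h, treated with compounds 1 h (0.5% DMSO), then stimulated with nigericin for 2 h at 37 °C. Supernatant IL-1β measured by ELISA; responses normalized to LPS+5 μM nigericin and LPS-only controls.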

[1] = THP-1, IL-1β secretion, PMA-differentiated THP-1 cells, LPS then nigericin stimulation, ELISA read at 450 nm, read-out: Activity
[2] = THP-1, Table 4, IL-1β secretion, LPS/nigericin-stimulated THP-1 cells, read-out: IC50

Structure (SMILES)	IC50 [1] [nM]	IC50 [2] [nM]
O=C(CN1CC2(CC2)c2cc(Br)ccc2C1=O)Nc1nc2cnccn2n1 [Example 260, 2-(6-bromo-1-oxospiro[3H-isoquinoline-4,1′-cyclopropane]-2-yl)-N-([1,2,4]triazolo[1,5-a]pyrazin-2-yl)acetamide]	< 10000	205
O=C(CN1CC2(CC2)c2cc(Br)ccc2C1=O)Nc1nc2cc(Cl)ccn2n1 [Example 261, 2-(6-bromo-1-oxospiro[3H-isoquinoline-4,1′-cyclopropane]-2-yl)-N-(7-chloro-[1,2,4]triazolo[1,5-a]pyridin-2-yl)acetamide]	< 10000	224
COc1ccc2nc(NC(=O)CN3CC4(CC4)c4cc(Br)ccc4C3=O)nn2c1 [Example 262, 2-(6-bromo-1-oxospiro[3H-isoquinoline-4,1′-cyclopropane]-2-yl)-N-(6-methoxy-[1,2,4]triazolo[1,5-a]pyridin-2-yl)acetamide]	< 10000	253
O=C(CN1CC2(CC2)c2cc(Br)ccc2C1=O)Nc1nc2ccc(F)cn2n1 [Example 263, 2-(6-bromo-1-oxospiro[3H-isoquinoline-4,1′-cyclopropane]-2-yl)-N-(6-fluoro-[1,2,4]triazolo[1,5-a]pyridin-2-yl)acetamide]	< 10000	281
O=C(CN1CC2(CC2)c2cc(Br)ccc2C1=O)Nc1nc2ccc(Cl)cn2n1 [Example 264, 2-(6-bromo-1-oxospiro[3H-isoquinoline-4,1′-cyclopropane]-2-yl)-N-(6-chloro-[1,2,4]triazolo[1,5-a]pyridin-2-yl)acetamide]	< 10000	312
O=C(CN1CC2(CC2)c2cc(Br)ccc2C1=O)Nc1nc2cc(C(F)(F)F)ccn2n1 [Example 265, 2-(6-bromo-1-oxospiro[3H-isoquinoline-4,1′-cyclopropane]-2-yl)-N-[7-(trifluoromethyl)-[1,2,4]triazolo[1,5-a]pyridin-2-yl]acetamide]	< 10000	335
O=C(CN1CC2(CC2)c2cc(Br)ccc2C1=O)Nc1nc2ccc(F)cc2o1 [Example 267, 2-(6-bromo-1-oxospiro[3H-isoquinoline-4,1′-cyclopropane]-2-yl)-N-(6-fluoro-1,3-benzoxazol-2-yl)acetamide]	< 10000	359
O=C(CN1CC2(CC2)c2cc(Br)ccc2C1=O)N[C@@H]1CCCN(C2CC2)C1 [Example 268, 2-(6-bromo-1-oxospiro[3H-isoquinoline-4,1′-cyclopropane]-2-yl)-N-[(3R)-1-cyclopropylpiperidin-3-yl]acetamide]	< 10000	192
O=C(CN1CC2(CC2)c2cc(Br)ccc2C1=O)Nc1ncc(I)cn1 [Example 269, 2-(6-bromo-1-oxospiro[3H-isoquinoline-4,1′-cyclopropane]-2-yl)-N-(5-iodopyrimidin-2-yl)acetamide]	< 10000	87
O=C(CN1CC2(CC2)c2cc(Br)ccc2C1=O)Nc1ncc(OC(F)F)cn1 [Example 270, 2-(6-bromo-1-oxospiro[3H-isoquinoline-4,1′-cyclopropane]-2-yl)-N-[5-(difluoromethoxy)pyrimidin-2-yl]acetamide]	< 10000	286
O=C(CN1C[C@]2(C[C@H]2F)c2cc(Br)ccc2C1=O)Nc1nc2ccccn2n1 [Example 271]	< 10000	29
N#Cc1cnc(NC(=O)CN2C[C@]3(C[C@H]3F)c3cc(Br)ccc3C2=O)nc1 [Example 272]	< 10000	14
C=C(F)c1ccc2c(c1)[C@@]1(C[C@H]1F)CN(CC(=O)Nc1ncc(F)cn1)C2=O [Example 273]	< 10000	59
Cc1cnc(NC(=O)CN2C[C@]3(C[C@H]3F)c3cc(Br)ccc3C2=O)nc1 [Example 274]	< 10000	23
N#Cc1cnc(NC(=O)CN2C[C@]3(C[C@H]3F)c3cc(Br)ccc3C2=O)c(F)c1 [Example 275, 2-[(2′r,4s)-6-bromo-2′-fluoro-1-oxospiro[3H-isoquinoline-4,1′-cyclopropane]-2-yl]-N-(5-cyano-3-fluoropyridin-2-yl)acetamide]	< 10000	70
O=C(CN1C[C@]2(C[C@H]2F)c2cc(Cl)ccc2C1=O)Nc1ncc(F)cn1 [Example 276]	< 10000	79
C[C@@H](F)[C@H]1CN(CC(=O)Nc2ncc(F)cn2)C(=O)c2ccc(Br)cc21 [Example 294, 2-[(4r)-6-bromo-4-[(1r)-1-fluoroethyl]-1-oxo-3,4-dihydroisoquinolin-2-yl]-N-(5-fluoropyrimidin-2-yl)acetamide]	< 10000	203
O=C(CN1CC(C(F)(F)F)c2cc(I)ccc2C1=O)Nc1ncc(F)cn1 (stereo not drawn) [Example 301, N-(5-fluoropyrimidin-2-yl)-2-[6-iodo-1-oxo-4-(trifluoromethyl)-3,4-dihydroisoquinolin-2-yl]acetamide]	< 10000	27
C#Cc1ccc2c(c1F)C1(CC1)CN(CC(=O)Nc1ncc(F)cn1)C2=O [Example 302, 2-(6-ethynyl-5-fluoro-1-oxospiro[3H-isoquinoline-4,1′-cyclopropane]-2-yl)-N-(5-fluoropyrimidin-2-yl)acetamide]	< 10000	539
O=C(CN1CC2(CC2)c2c(ccc(C3(F)CC3)c2F)C1=O)Nc1ncc(F)cn1 [Example 307, 2-[5-fluoro-6-(1-fluorocyclopropyl)-1-oxospiro[3H-isoquinoline-4,1′-cyclopropane]-2-yl]-N-(5-fluoropyrimidin-2-yl)acetamide]		898
O=C(CN1C[C@]2(C[C@H]2F)c2cc(Br)ccc2C1=O)Nc1ncc(C(F)(F)F)cn1 [Example 308, 2-[(2′R,4S)-6-bromo-2′-fluoro-1-oxospiro[3H-isoquinoline-4,1′-cyclopropane]-2-yl]-N-[5-(trifluoromethyl)pyrimidin-2-yl]acetamide]		25
O=C(CN1CC2(CC2)c2cc(Br)ccc2C1=O)Nc1ncc(C2CC2(F)F)cn1 (stereo not drawn) [Example 309, 2-(6-bromo-1-oxospiro[3H-isoquinoline-4,1′-cyclopropane]-2-yl)-N-[5-(2,2-difluorocyclopropyl)pyrimidin-2-yl]acetamide]		696
O=C(CN1CC2(CC2)c2c(ccc(OC(F)F)c2F)C1=O)Nc1ncc(F)cn1 [Example 310, 2-[6-(difluoromethoxy)-5-fluoro-1-oxospiro[3H-isoquinoline-4,1′-cyclopropane]-2-yl]-N-(5-fluoropyrimidin-2-yl)acetamide]		1060
O=C(CN1CC2(CC2)c2nc(C3CC3)ccc2C1=O)Nc1ncc(F)cn1 [Example 311, 2-(2-cyclopropyl-5-oxospiro[7H-1,6-naphthyridine-8,1′-cyclopropane]-6-yl)-N-(5-fluoropyrimidin-2-yl)acetamide]		1410
CC(F)c1ccc2c(c1)C1(CC1)CN(CC(=O)Nc1ncc(F)cn1)C2=O (stereo not drawn) [Example 312, 2-[6-(1-fluoroethyl)-1-oxospiro[3H-isoquinoline-4,1′-cyclopropane]-2-yl]-N-(5-fluoropyrimidin-2-yl)acetamide]		1020
CCc1ccc2c(c1)C1(CC1)CN(CC(=O)Nc1ncc(F)cn1)C2=O [Example 314, 2-(6-ethyl-1-oxospiro[3H-isoquinoline-4,1′-cyclopropane]-2-yl)-N-(5-fluoropyrimidin-2-yl)acetamide]		784
